Experimental data as given in PubChem BioAssay (NCI).
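Tested at 5 concentrations; 48 h exposure; 96-well plates; endpoints linearly interpolated, else capped at highest concentration. Definition used: TGI = concentration required for complete inhibition of growth.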

Columns and labels:
Experiment in all cases: DTP human tumour cell line panel, 48 h
A549 NSCLC = system: A549 NSCLC
ACHN renal = system: ACHN renal
BT-549 breast = system: BT-549 breast
CAKI-1 renal = system: CAKI-1 renal
CCRF-CEM leukemia = system: CCRF-CEM leukemia
COLO 205 colon = system: COLO 205 colon
DU-145 prostate = system: DU-145 prostate
EKVX NSCLC = system: EKVX NSCLC
HCT-116 colon = system: HCT-116 colon
HCT-15 colon = system: HCT-15 colon
HL-60(TB) leukemia = system: HL-60(TB) leukemia
HOP-62 NSCLC = system: HOP-62 NSCLC
HS 578T breast = system: HS 578T breast
HT29 colon = system: HT29 colon
IGROV1 ovarian = system: IGROV1 ovarian
K-562 leukemia = system: K-562 leukemia
KM12 colon = system: KM12 colon
LOX IMVI melanoma = system: LOX IMVI melanoma
M14 melanoma = system: M14 melanoma
MALME-3M melanoma = system: MALME-3M melanoma
MCF7 breast = system: MCF7 breast
MDA-MB-231 breast = system: MDA-MB-231 breast
MDA-MB-435 = system: MDA-MB-435
MDA-N = system: MDA-N
NCI-H23 lung = system: NCI-H23 lung
NCI-H460 lung = system: NCI-H460 lung
NCI/ADR-RES ovarian = system: NCI/ADR-RES ovarian
OVCAR-3 ovarian = system: OVCAR-3 ovarian
OVCAR-4 ovarian = system: OVCAR-4 ovarian
OVCAR-5 ovarian = system: OVCAR-5 ovarian
OVCAR-8 ovarian = system: OVCAR-8 ovarian
PC-3 prostate = system: PC-3 prostate
RPMI-8226 leukemia = system: RPMI-8226 leukemia
RXF 393 renal = system: RXF 393 renal
SF-268 CNS = system: SF-268 CNS
SF-295 CNS = system: SF-295 CNS
SF-539 CNS = system: SF-539 CNS
SK-MEL-28 melanoma = system: SK-MEL-28 melanoma
SK-MEL-5 melanoma = system: SK-MEL-5 melanoma
SK-OV-3 ovarian = system: SK-OV-3 ovarian
SN12C renal = system: SN12C renal
SNB-19 CNS = system: SNB-19 CNS
SNB-75 CNS = system: SNB-75 CNS
SR leukemia = system: SR leukemia
SW-620 colon = system: SW-620 colon
T-47D breast = system: T-47D breast
TK-10 renal = system: TK-10 renal
U251 CNS = system: U251 CNS
UACC-257 melanoma = system: UACC-257 melanoma
UACC-62 melanoma = system: UACC-62 melanoma
UO-31 renal = system: UO-31 renal

For COc1ccc(-c2c3c(nc4nc(SCC(=O)c5ccc(Br)cc5)nc(N)c24)CCCC3)cc1OC, the TGI (A549 NSCLC) was > 100 µM, the TGI (ACHN renal) was > 100 µM and the TGI (BT-549 breast) was > 100 µM. For the same compound, the TGI (CAKI-1 renal) was > 100 µM, the TGI (CCRF-CEM leukemia) was > 100 µM and the TGI (COLO 205 colon) was > 100 µM. The TGI (DU-145 prostate) was > 100 µM, the TGI (EKVX NSCLC) was > 100 µM and the TGI (HCT-116 colon) was > 100 µM. For the same compound, the TGI (HCT-15 colon) was > 100 µM, the TGI (HL-60(TB) leukemia) was > 100 µM and the TGI (HOP-62 NSCLC) was > 100 µM. For the same compound, the TGI (HS 578T breast) was 28.6 µM, the TGI (HT29 colon) was > 100 µM and the TGI (IGROV1 ovarian) was > 100 µM. The TGI (K-562 leukemia) was > 100 µM, the TGI (KM12 colon) was > 100 µM and the TGI (LOX IMVI melanoma) was > 100 µM. The TGI (M14 melanoma) was > 100 µM, the TGI (MALME-3M melanoma) was > 100 µM and the TGI (MCF7 breast) was > 100 µM. The TGI (MDA-MB-231 breast) was > 100 µM, the TGI (MDA-MB-435) was > 100 µM and the TGI (MDA-N) was > 100 µM. For the same compound, the TGI (NCI-H23 lung) was > 100 µM, the TGI (NCI-H460 lung) was > 100 µM and the TGI (NCI/ADR-RES ovarian) was > 100 µM. For the same compound, the TGI (OVCAR-3 ovarian) was > 100 µM, the TGI (OVCAR-4 ovarian) was > 100 µM and the TGI (OVCAR-5 ovarian) was > 100 µM. For the same compound, the TGI (OVCAR-8 ovarian) was > 100 µM, the TGI (PC-3 prostate) was > 100 µM and the TGI (RPMI-8226 leukemia) was > 100 µM. For the same compound, the TGI (RXF 393 renal) was 59.2 µM, the TGI (SF-268 CNS) was > 100 µM and the TGI (SF-295 CNS) was > 100 µM. For the same compound, the TGI (SF-539 CNS) was > 100 µM, the TGI (SK-MEL-28 melanoma) was > 100 µM and the TGI (SK-MEL-5 melanoma) was 21.7 µM. For the same compound, the TGI (SK-OV-3 ovarian) was > 100 µM, the TGI (SN12C renal) was > 100 µM and the TGI (SNB-19 CNS) was > 100 µM. The TGI (SNB-75 CNS) was 28.1 µM, the TGI (SR leukemia) was > 100 µM and the TGI (SW-620 colon) was > 100 µM. For the same compound, the TGI (T-47D breast) was > 100 µM, the TGI (TK-10 renal) was > 100 µM and the TGI (U251 CNS) was > 100 µM. For the same compound, the TGI (UACC-257 melanoma) was > 100 µM, the TGI (UACC-62 melanoma) was > 100 µM and the TGI (UO-31 renal) was > 100 µM.
